In data set [1] the target is T1, FAK (Homo sapiens, UniProt Q05397).
T1 construct: endogenous in cells; host or cells: Caco-2
Nature of the data set: FAK activation (FAK-Tyr-397 phosphorylation) by western blotting in Caco-2 cells in suspension. In kind it is cell-based. The note with it: for FAK activation (FAK-Tyr-397 phosphorylation): 10 nM, Caco-2 cells; for FAK phosphorylation: 100 pm-1 nM; for basal FAK-Tyr-397 phosphorylation: ambient pressure, varying concentrations. An excerpt:
FAK-Y397 western blotting: For studies of FAK activation, cells were maintained at ambient or increased pressure in bacteriologic plastic dishes pacificated with heat-inactivated bovine serum albumin to prevent adhesion and avoid adhesion-associated background FAK activation. Cells were lysed in lysis buffer, resolved by 10% SDS-PAGE, transferred to nitrocellulose and blotted with antibody to Tyr-397-phosphorylated FAK (Rabbit monoclonal antibody, ab81298, Abcam, USA) and anti-rabbit 680 (LI-COR, USA), before quantitation using Kodak Scientific Imaging Systems 1D, V.3.5.4 within the linear range of exposure (Oncotarget 2017). Total FAK (Primary antibody: Anti-FAK, clone 4.47 Merck, Germany and secondary antibody: anti-mouse 800, LI-COR, USA) served as a protein loading control.
On the technique in general: Immunoblotting shows a protein as a band on a membrane.

The test system of data set [2] is Caco-2 monolayers. Nature of the data set: Closure of circular wounds in Caco-2 monolayers on collagen I. In kind it is cell-based, human. The note with it: for monolayer wound closure: 10 nM, Caco-2 on collagen I; for Caco-2 monolayer wound closure: concentration not given.
Data set [3] addresses T2, SHP2 (Homo sapiens, UniProt Q06124).
T2 sequence (Q06124 1-593): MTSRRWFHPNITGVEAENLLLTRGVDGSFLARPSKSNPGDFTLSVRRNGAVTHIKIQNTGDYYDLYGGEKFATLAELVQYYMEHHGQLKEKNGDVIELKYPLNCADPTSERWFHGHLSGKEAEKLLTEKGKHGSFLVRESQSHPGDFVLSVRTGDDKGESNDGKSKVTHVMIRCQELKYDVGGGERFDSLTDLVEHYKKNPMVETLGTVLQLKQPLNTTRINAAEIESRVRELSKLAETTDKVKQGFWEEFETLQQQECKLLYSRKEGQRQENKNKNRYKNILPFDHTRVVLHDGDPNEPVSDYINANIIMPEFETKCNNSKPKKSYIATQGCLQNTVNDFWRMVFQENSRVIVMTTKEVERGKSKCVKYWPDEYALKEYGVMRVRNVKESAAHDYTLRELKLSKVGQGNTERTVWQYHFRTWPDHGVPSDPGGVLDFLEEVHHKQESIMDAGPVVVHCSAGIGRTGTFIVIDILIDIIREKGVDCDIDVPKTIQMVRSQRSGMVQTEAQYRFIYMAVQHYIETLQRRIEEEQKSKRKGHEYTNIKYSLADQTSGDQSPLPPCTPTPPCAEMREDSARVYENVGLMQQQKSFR
Nature of the data set: SHP2 dephosphorylation of a synthetic substrate. Type of data set: biochemical. The note with it: 100 nM; vs. positive control reaction.

“Also recorded” adds a separate entry of the source.

T1 sequence (Q05397 whole entry): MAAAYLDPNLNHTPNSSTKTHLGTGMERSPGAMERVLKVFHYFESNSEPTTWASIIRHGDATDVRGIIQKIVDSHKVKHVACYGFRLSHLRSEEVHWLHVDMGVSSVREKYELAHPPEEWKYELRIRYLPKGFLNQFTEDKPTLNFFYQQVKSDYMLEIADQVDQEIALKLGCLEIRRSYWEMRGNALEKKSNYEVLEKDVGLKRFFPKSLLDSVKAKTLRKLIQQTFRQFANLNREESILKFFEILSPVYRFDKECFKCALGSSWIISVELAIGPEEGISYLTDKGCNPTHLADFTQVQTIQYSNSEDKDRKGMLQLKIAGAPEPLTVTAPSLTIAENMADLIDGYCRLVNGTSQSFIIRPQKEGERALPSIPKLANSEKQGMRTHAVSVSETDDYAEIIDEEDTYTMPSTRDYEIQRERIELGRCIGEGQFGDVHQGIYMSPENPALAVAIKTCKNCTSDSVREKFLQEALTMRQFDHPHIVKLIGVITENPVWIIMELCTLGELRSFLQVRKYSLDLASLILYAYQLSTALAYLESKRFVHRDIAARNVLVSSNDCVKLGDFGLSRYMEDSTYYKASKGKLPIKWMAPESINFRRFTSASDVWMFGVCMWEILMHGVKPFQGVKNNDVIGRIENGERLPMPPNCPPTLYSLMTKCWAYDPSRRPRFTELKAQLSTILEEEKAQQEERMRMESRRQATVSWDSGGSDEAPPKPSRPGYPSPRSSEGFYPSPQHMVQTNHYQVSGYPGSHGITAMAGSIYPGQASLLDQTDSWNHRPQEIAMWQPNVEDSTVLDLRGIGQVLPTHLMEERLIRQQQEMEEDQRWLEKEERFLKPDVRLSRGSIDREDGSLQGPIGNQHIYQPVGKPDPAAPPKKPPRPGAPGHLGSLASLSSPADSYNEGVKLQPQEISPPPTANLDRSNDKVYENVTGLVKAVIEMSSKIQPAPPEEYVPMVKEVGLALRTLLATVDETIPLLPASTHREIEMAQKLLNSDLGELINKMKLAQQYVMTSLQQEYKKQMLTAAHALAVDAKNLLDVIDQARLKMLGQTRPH

For the molecule `O=C(Nc1cc(C(F)(F)F)ccc1N1CCOCC1)N1CCCC1c1ccccc1` (centres unmarked) [Compound M12], the “FAK activation (FAK-Tyr-397 phosphorylation)” value in data set [1] is recorded as “proved active; also recorded: activate FAK Y-397 phosphorylation”. For the same molecule, the monolayer wound closure entry in data set [2] is reported as “stimulates monolayer wound closure”.

With `COc1ccc(C(CNC(=O)Nc2cc(C(F)(F)F)ccc2N2CCOCC2)N(C)C)cc1` (centres unmarked) [Compound M6], in data set [1], the “FAK activation (FAK-Tyr-397 phosphorylation)” value is “proved active; also recorded: activate FAK Y-397 phosphorylation” and the FAK phosphorylation entry is “activate FAK phosphorylation”. In addition, the “Caco-2 monolayer wound closure” value in data set [2] is listed as “promote Caco-2 monolayer wound closure”.

Take `COc1ccc(C2CCCN2C(=O)CC(NC(N)=O)c2ccccc2Cl)cc1OC` (centres unmarked) [Compound 4, 1-(2-chlorophenyl)-3-[2-(3,4-dimethoxyphenyl)pyrrolidin-1-yl]-3-oxopropylurea]: the FAK activation entry in data set [1] (1 nM) is “no change was observed”; in data set [1] (concentration not given) it was “especially potent”. In addition, the “FAK activation (FAK-Tyr-397 phosphorylation)” value is listed as “can activate FAK” in data set [1] and “activate FAK” in data set [1] (listed as D4). Also, in data set [1], the “basal FAK-Tyr-397 phosphorylation” value was “increase basal FAK-Tyr-397 phosphorylation”. The monolayer wound closure entry in data set [2] is on record as “Increased wound closure rates; also recorded: can promote Caco-2 monolayer wound healing”; in data set [2] (listed as D4), “accelerate the closure of circular wounds”. The “SHP2 dephosphorylation of a synthetic substrate” value in data set [3] is on record as “neither D3 nor D4 (100 nM) blocks SHP2 dephosphorylation”.

`O=C(Nc1cc(C(F)(F)F)ccc1N1CCOCC1)N1CCCC1C1CCCCC1` (centres unmarked) [Compound M11]: in data set [1], the “FAK activation (FAK-Tyr-397 phosphorylation)” value was “proved active; also recorded: activate FAK Y-397 phosphorylation” and the FAK phosphorylation entry is recorded as “activate FAK phosphorylation”. Further, in data set [2], the “Caco-2 monolayer wound closure” value is on record as “promote Caco-2 monolayer wound closure”.

In the case of `O=C(Nc1cc(C(F)(F)F)ccc1N1CCOCC1)N1CCCC1c1ccncc1` (centres unmarked) [Compound M3], in data set [1], the “FAK activation (FAK-Tyr-397 phosphorylation)” value is recorded as “proved active; also recorded: activate FAK Y-397 phosphorylation” and the FAK phosphorylation result is on record as “activate FAK phosphorylation”. In addition, the “Caco-2 monolayer wound closure” value in data set [2] is “promote Caco-2 monolayer wound closure”.

As for `CS(=O)(=O)c1cccc(CNc2nc(Nc3ccc4c(c3)CCC(=O)N4)ncc2C(F)(F)F)c1` [PF-573228, reference compound], the “basal FAK autophosphorylation” value in data set [1] is given as “inhibits basal FAK autophosphorylation”. Moreover, the “basal rates of wound healing in vitro” value in data set [2] is listed as “reduces basal rates of wound healing in vitro”.

Turning to `Cc1ccccc1[C@@H]1CCCN1C(=O)C[C@H](NC(N)=O)c1cccs1` [Compound 2, [(1S)-3-[(2S)-2-(2-methylphenyl)pyrrolidin-1-yl]-3-oxo-1-thiophen-2-ylpropyl]urea], the FAK activation entry is recorded as “demonstrated FAK activation” in data set [1] (1 nM); “modest FAK activation” in data set [1] (10 and 100 nM); “activated FAK” in data set [1] (concentration not given). Besides, in data set [1], the “basal FAK-Tyr-397 phosphorylation” value is reported as “increase basal FAK-Tyr-397 phosphorylation”. Also, the wound closure rate entry in data set [2] (100 μM, Caco-2 on Collagen-I) is reported as “Increased wound closure rates”.

The record behind these values is patent US12048703B2, “Use of small molecule FAK activators to promote mucosal healing” (Regents of the University of Minnesota, priority 2018, dated 2024).
